Experimental data reported in US10329289B2, “6,7-dihydro-5H-pyrrolo[3,4-B]pyridin-5-one allosteric modulators of the M4 muscarinic acetylcholine receptor” (Merck Sharp & Dohme Corp., priority 2015, dated 2019).

Target: T1, human M4 muscarinic acetylcholine receptor (Homo sapiens, UniProt P08173)
T1 construct: expressed in transfected cells; host or cells: CHO-K1
T1 sequence (P08173 1-479): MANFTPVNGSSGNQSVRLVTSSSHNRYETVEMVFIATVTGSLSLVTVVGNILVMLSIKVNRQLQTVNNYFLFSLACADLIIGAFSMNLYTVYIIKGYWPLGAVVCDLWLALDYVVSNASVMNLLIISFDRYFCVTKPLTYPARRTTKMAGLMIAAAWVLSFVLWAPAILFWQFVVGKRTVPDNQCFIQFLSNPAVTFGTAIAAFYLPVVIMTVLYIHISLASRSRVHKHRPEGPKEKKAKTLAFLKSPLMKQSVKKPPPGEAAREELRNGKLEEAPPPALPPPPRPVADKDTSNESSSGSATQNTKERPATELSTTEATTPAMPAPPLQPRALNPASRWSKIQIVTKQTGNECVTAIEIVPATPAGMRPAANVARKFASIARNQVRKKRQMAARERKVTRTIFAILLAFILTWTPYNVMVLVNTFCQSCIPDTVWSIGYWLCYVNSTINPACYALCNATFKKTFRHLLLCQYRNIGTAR
Experiment: human FLIPR-based M4 PAM assay (Ca2+ mobilization, CHO-K1 cells with human M4 receptor and Gαqi5)
Type: cell-based
Conditions: acetylcholine at 20% of maximum response, read-out: M4 PAM IP
In short: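 CHO-K1 cells stably expressing human M4 and chimeric Gαqi5 were dye-loaded ~1 h at 37 °C and read for Ca2+ fluorescence. Compound followed by acetylcholine at an EC20 (sometimes an EC70 third addition); inflection point from a 4-parameter logistic fit.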

Which EC50 does the source give for `Cc1cc2c(nc1N1CCC(Oc3ccc4c(c3)COC4)CC1)CN(C)C2=O` [Example 38, 2-(4-((1,3-dihydro-2-benzofuran-5-yl)oxy)piperidin-1-yl)-3,6-dimethyl-6,7-dihydro-5H-pyrrolo[3,4-b]pyridin-5-one] here?
The EC50 was 30 nM.

`Cc1cc2c(nc1N1CCC(OCC(O)C(F)(F)F)CC1)CNC2=O` (single isomer, unassigned) [Example 181A] was tested. Which EC50 did it give?
Its EC50 is 55 nM.

Which EC50 does the source give for `Cc1cc2c(nc1N1CC[C@@H](Oc3cccc(C#N)c3)[C@H](F)C1)CNC2=O` [Example 21, 3-(((3R,4R)-3-fluoro-1-(3-methyl-5-oxo-6,7-dihydro-5H-pyrrolo[3,4-b]pyridin-2-yl)piperidin-4-yl)oxy)benzonitrile] here?
The EC50 was 50 nM.

For `Cc1cc2c(nc1N1CC[C@@H](Oc3ccc4c(cnn4C)c3)[C@H](F)C1)CNC2=O` [Example 25, 2-((3R,4R)-3-fluoro-4-((1-methyl-1H-indazol-5-yl)oxy)piperidin-1-yl)-3-methyl-6,7-dihydro-5H-pyrrolo[3,4-b]pyridin-5-one], which EC50 is on record?
The EC50 was 75 nM.

For `CCc1cc2c(nc1N1CCC(OCC3(C)CC3)CC1)CNC2=O` [Example 229, 3-ethyl-2-(4-((1-methylcyclopropyl)methoxy)piperidin-1-yl)-6,7-dihydro-5H-pyrrolo[3,4-b]pyridin-5-one], which EC50 is on record?
The EC50 was 36 nM.

How did the EC50 turn out when `CCN1C(=O)c2c(nc(N3CCC(Oc4ccc5c(c4)COC5)CC3)c(C)c2C)[C@H]1CO` [Example 351A, (S)-2-(4-((1,3-dihydroisobenzofuran-5-yl)oxy)piperidin-1-yl)-6-ethyl-7-(hydroxymethyl)-3,4-dimethyl-6,7-dihydro-5H-pyrrolo[3,4-b]pyridin-5-one] was run?
The EC50 was 19 nM.

For `CCc1cc2c(nc1N1CCC(Oc3ccc(OC)nc3)CC1)CNC2=O` [Example 228, 3-Ethyl-2-(4-((6-methoxypyridin-3-yl)oxy)piperidin-1-yl)-6,7-dihydro-5H-pyrrolo[3,4-b]pyridin-5-one], which EC50 is on record?
Its EC50 is 86 nM.

`Cc1cc2c(nc1N1CCC(Oc3ccccc3Cl)CC1)CNC2=O` [Example 73, 2-(4-(2-chlorophenoxy)piperidin-1-yl)-3-methyl-6,7-dihydro-5H-pyrrolo[3,4-b]pyridin-5-one] was tested. Which EC50 did it give?
Its EC50 is 2250 nM.

`Cc1c(N2CC[C@@H](OCC3(C)CC3)[C@@H](F)C2)nc2c(c1C)C(=O)N(C)[C@H]2CO` [Example 342A, (R)-2-((3S,4R)-3-fluoro-4-((1-methylcyclopropyl)methoxy)piperidin-1-yl)-7-(hydroxymethyl)-3,4,6-trimethyl-6,7-dihydro-5H-pyrrolo[3,4-b]pyridin-5-one] was tested. Which EC50 did it give?
The EC50 was 884 nM.

`Cc1c(N2CCC(Oc3ccc4c(c3)CCOC4)CC2)nc2c(c1C)C(=O)N(CCO)C2` [Example 265F, 6-(2-hydroxyethyl)-2-(4-(isochroman-6-yloxy)piperidin-1-yl)-3,4-dimethyl-6,7-dihydro-5H-pyrrolo[3,4-b]pyridin-5-one] was tested. Which EC50 did it give?
Its EC50 is 46 nM.

For `Cc1cc2c(nc1N1CCC(Oc3ccc4c(c3)CCC(=O)N4)CC1)CNC2=O` [Example 118, 6-((1-(3-methyl-5-oxo-6,7-dihydro-5H-pyrrolo[3,4-b]pyridin-2-yl)piperidin-4-yl)oxy)-3,4-dihydroquinolin-2(1H)-one], which EC50 is on record?
Its EC50 is 141 nM.

Which EC50 does the source give for `CCc1cc2c(nc1N1CC[C@@H](Oc3ccc4c(cnn4C)c3)[C@@H](F)C1)CN(CCO)C2=O` [Example 240A, 3-ethyl-2-((3S,4R)-3-fluoro-4-((1-methyl-1H-indazol-5-yl)oxy)piperidin-1-yl)-6-(2-hydroxyethyl)-6,7-dihydro-5H-pyrrolo[3,4-b]pyridin-5-one] here?
The EC50 was 127 nM.

For `Cc1c(N2CCC(Oc3ccc4c(c3)COC4)CC2)nc2c(c1CO)C(=O)NC2` [Example 303, 2-(4-((1,3-dihydro-2-benzofuran-5-yl)oxy)piperidin-1-yl)-4-(hydroxymethyl)-3-methyl-6,7-dihydro-5H-pyrrolo[3,4-b]pyridin-5-one], which EC50 is on record?
The EC50 was 302 nM.

`CCOc1ccc(OC2CCN(c3nc4c(cc3C)C(=O)N(CCO)C4)CC2)cn1` [Example 254, 2-(4-((6-ethoxypyridin-3-yl)oxy)piperidin-1-yl)-6-(2-hydroxyethyl)-3-methyl-6,7-dihydro-5H-pyrrolo[3,4-b]pyridin-5-one] was tested. Which EC50 did it give?
The EC50 was 69 nM.

For `Cc1cc2c(nc1N1CCC(Oc3ccc4[nH]nnc4c3)CC1)CNC2=O` [Example 163A, 2-(4-((1H-benzo[d][1,2,3]triazol-5-yl)oxy)piperidin-1-yl)-3-methyl-6,7-dihydro-5H-pyrrolo[3,4-b]pyridin-5-one], which EC50 is on record?
Its EC50 is 1140 nM.

How did the EC50 turn out when `CCc1cc2c(nc1N1CCC(Oc3ccc4c(c3)C[C@H](O)C4)CC1)CNC2=O` [Example 166A, (R)-3-ethyl-2-(4-((2-hydroxy-2,3-dihydro-1H-inden-5-yl)oxy)piperidin-1-yl)-6,7-dihydro-5H-pyrrolo[3,4-b]pyridin-5-one] was run?
The EC50 was 61 nM.

With `Cc1c(N2CCC(Oc3ccc4c(c3)COC4)CC2)nc2c(c1C)C(=O)N([C@@H](C)CO)C2` [Example 266D, (S)-2-(4-((1,3-dihydro-2-benzofuran-5-yl)oxy)piperidin-1-yl)-6-(1-hydroxypropan-2-yl)-3,4-dimethyl-6,7-dihydro-5H-pyrrolo[3,4-b]pyridin-5-one] as the compound, how does the EC50 read?
Its EC50 is 43 nM.

How did the EC50 turn out when `Cc1cc2c(nc1N1CCC(Oc3cnc4c(c3)COC4)CC1)CN(C)C2=O` [Example 49, 2-(4-((5,7-dihydrofuro[3,4-b]pyridin-3-yl)oxy)piperidin-1-yl)-3,6-dimethyl-6,7-dihydro-5H-pyrrolo[3,4-b]pyridin-5-one] was run?
Its EC50 is 94 nM.

For `Cc1cc2c(nc1N1CCC(Oc3ccc4c(c3)C[C@H](O)C4)CC1)CNC2=O` (single isomer, unassigned) [Example 324B], which EC50 is on record?
The EC50 was 28 nM.

With `Cc1cc2c(nc1N1CC[C@@H](Oc3ccc4c(cnn4C)c3)[C@@H](F)C1)CN(CCO)C2=O` [Example 267E, 2-((3S,4R)-3-fluoro-4-((1-methyl-1H-indazol-5-yl)oxy)piperidin-1-yl)-6-(2-hydroxyethyl)-3-methyl-6,7-dihydro-5H-pyrrolo[3,4-b]pyridin-5-one] as the compound, how does the EC50 read?
The EC50 was 69 nM.

How did the EC50 turn out when `Cc1cc2c(nc1N1CCC(Oc3ccc4c(c3)CC(C)(C)O4)CC1)CNC2=O` [Example 321, 2-(4-((2,2-Dimethyl-2,3-dihydrobenzofuran-5-yl)oxy)piperidin-1-yl)-3-methyl-6,7-dihydro-5H-pyrrolo[3,4-b]pyridin-5-one] was run?
Its EC50 is 193 nM.

For `COc1ccc(OC2CCN(c3nc4c(cc3C)C(=O)N(CC3COC3)C4)CC2)cn1` [Example 250A, 2-(4-((6-methoxypyridin-3-yl)oxy)piperidin-1-yl)-3-methyl-6-(oxetan-3-ylmethyl)-6,7-dihydro-5H-pyrrolo[3,4-b]pyridin-5-one], which EC50 is on record?
Its EC50 is 70 nM.

`Cc1cc2c(nc1N1CCC(OCC3CCCC3)CC1)CNC2=O` [Example 175, 2-(4-(cyclopentylmethoxy)piperidin-1-yl)-3-methyl-6,7-dihydro-5H-pyrrolo[3,4-b]pyridin-5-one] was tested. Which EC50 did it give?
Its EC50 is 139 nM.

For `Cc1cc2c(nc1N1CCC(Oc3cccc(C#N)c3)CC1)[C@H](CO)N(C)C2=O` [Example 346, (R)-3-((1-(7-(hydroxymethyl)-3,6-dimethyl-5-oxo-6,7-dihydro-5H-pyrrolo[3,4-b]pyridin-2-yl)piperidin-4-yl)oxy)benzonitrile], which EC50 is on record?
The EC50 was 3080 nM.

How did the EC50 turn out when `Cc1cc2c(nc1N1CCC(OCC3CCOC3)CC1)CNC2=O` (centres unmarked) [Example 177, 3-methyl-2-(4-((tetrahydrofuran-3-yl)methoxy)piperidin-1-yl)-6,7-dihydro-5H-pyrrolo[3,4-b]pyridin-5-one] was run?
Its EC50 is 1810 nM.

`COCCOc1ccc(O[C@@H]2CCN(c3nc4c(cc3C)C(=O)NC4)C[C@H]2F)cn1` [Example 60, 2-((3R,4R)-3-fluoro-4-((6-(2-methoxyethoxy)pyridin-3-yl)oxy)piperidin-1-yl)-3-methyl-6,7-dihydro-5H-pyrrolo[3,4-b]pyridin-5-one] was tested. Which EC50 did it give?
The EC50 was 207 nM.

With `Cc1cc2c(nc1N1CCC(OCC(C)C(F)(F)F)CC1)CNC2=O` (centres unmarked) [Example 188, 3-methyl-2-(4-(3,3,3-trifluoro-2-methylpropoxy)piperidin-1-yl)-6,7-dihydro-5H-pyrrolo[3,4-b]pyridin-5-one] as the compound, how does the EC50 read?
The EC50 was 1220 nM.

`Cc1cc2c(nc1N1CCC(Oc3cnn(C4CC4)c3)CC1)CNC2=O` [Example 311A, 2-(4-((1-cyclopropyl-1H-pyrazol-4-yl)oxy)piperidin-1-yl)-3-methyl-6,7-dihydro-5H-pyrrolo[3,4-b]pyridin-5-one] was tested. Which EC50 did it give?
The EC50 was 108 nM.

`Cc1cc2c(nc1N1CCC(Oc3ccc4c(c3)CCOC4)CC1)[C@@H](CO)N(C)C2=O` [Example 349A, (S)-7-(hydroxymethyl)-2-(4-(isochroman-6-yloxy)piperidin-1-yl)-3,6-dimethyl-6,7-dihydro-5H-pyrrolo[3,4-b]pyridin-5-one] was tested. Which EC50 did it give?
Its EC50 is 22 nM.

`Cc1cc2c(nc1N1CCC(Oc3cnc4c(c3)CC[C@H]4O)CC1)CNC2=O` (single isomer, unassigned) [Example 324D] was tested. Which EC50 did it give?
Its EC50 is 682 nM.

Which EC50 does the source give for `COCCOc1ccc(OC2CCN(c3nc4c(cc3C)C(=O)NC4)CC2)cn1` [Example 171, 2-(4-((6-(2-methoxyethoxy)pyridin-3-yl)oxy)piperidin-1-yl)-3-methyl-6,7-dihydro-5H-pyrrolo[3,4-b]pyridin-5-one] here?
Its EC50 is 79 nM.

Which EC50 does the source give for `Cc1cc2c(nc1N1CCC(Oc3ccc4c(cnn4C)c3)CC1)CNC2=O` [Example 4, 3-methyl-2-(4-((1-methyl-1H-indazol-5-yl)oxy)piperidin-1-yl)-6,7-dihydro-5H-pyrrolo[3,4-b]pyridin-5-one] here?
The EC50 was 49 nM.
